Measurements taken from US9573972B2, “Nurotoxic sterol glycosides” (priority 2008, dated 2017).
Values joined by “and” are separate entries in the source; they are usually repeats but may differ in a detail not shown here. Equal values may be shown once. “Also recorded” adds a separate entry of the source. Marks after values point to notes of the source that are not given here.

What was measured:
Type in all cases: in vivo, mouse
[1] = system: Phosphorylated Junser73; test: Anti-pJun immunofluorescence
Description: Tissue-mounted slides were processed for fluorescence microscopy as follows: Sections were rinsed in coplin jars for 45 minutes at room temperature (RT) in three changes of PBS. Sections were then incubated at RT for 30 minutes in a blocking permeabilization solution made of 5% normal goat serum (NGS), 5% normal rabbit serum (NRS) or 5% BlokHen II (Ayes Labs, Inc., Tigard, Oreg.), 0.05% Triton X-100 and PBS. Subsequently, the blocking solution was tipped off and the slides were rinsed in PBS for 2 minutes. […]

[2] = Body weights of SG-fed mice; conditions: SG-fed vs age-matched controls; SG 1000 μg per pellet daily for 15 weeks
Description: Five-month old male CD-1 mice (30.1-35.7 g, 7.5 cm-8.8 cm) were purchased from Charles River (Wilmington, Mass.). Adult mice were chosen to mimic the mean age of onset of ALS-PDC (Kurland, L. T. (1988a) Trends Neurosci. 11, 51-4; Kurland, L. T., et al. (1994) Amyotrophic lateral sclerosis-parkinsonism-dementia complex on Guam: epidemiologic and etiological perspectives. 109-131). Thirty mice for the SG study were randomly divided into 2 groups (14 control and 16 experimental animals). All animals were housed singly in a virus-free barrier facility in a room maintained at 22° C. under a 12 hour light/dark cycle. The mice were provided ad libitum access to food and water.
The synthetic SG was mixed with finely ground Purina Chow mouse pellets (Mouse Diet™, Purina) to create the experimental pellets with a SG content of 1000 μg per pellet. Dry materials were blended with a sterile silicon spatula. For every 5 g of standard feed, 2.5 mL of doubly-distilled water (dd)H2O was added and the dough was kneaded and round up into pellets. A single sterol glucoside containing pellet was placed in the feeding tray each morning before the addition of regular mouse chow (ad libitum). All experimental pellets were entirely consumed by the mice each day. […] SG feeding was conducted daily for 15 weeks and mice were behaviorally monitored until sacrifice at 35 weeks (time point 1) or 52 weeks (time point 2).

[3] = system: choline acetyl transferase (ChAT) immunoreactive cells; test: Anti-ChAT immunofluorescence, cholinergic neuron counts; conditions: for Fewer cholinergic neurons than control: SG-fed; for Cholinergic neurons, change: ventral horn lumbar spinal cord, SG-fed vs control
Description: (§1) Tissue-mounted slides were processed for fluorescence microscopy as follows: Sections were rinsed in coplin jars for 45 minutes at room temperature (RT) in three changes of PBS. Sections were then incubated at RT for 30 minutes in a blocking permeabilization solution made of 5% normal goat serum (NGS), 5% normal rabbit serum (NRS) or 5% BlokHen II (Ayes Labs, Inc., Tigard, Oreg.), 0.05% Triton X-100 and PBS. Subsequently, the blocking solution was tipped off and the slides were rinsed in PBS for 2 minutes. Sections were then incubated overnight in a humidified chamber at 4° C. with a PBS buffered solution that contained 1% NGS or 1% NRS, 1% bovine serum albumin (BSA) and one of the following primary antibodies: (a) rabbit anti-human/mouse ATF-3 (H-90) IgG (polyclonal, 1:500; Santa Cruz Biotechnology, Inc., Santa Cruz, Calif.), (b) anti-activated caspase-3 IgG (monoclonal, 1:250; Chemicon International, Temecula, Calif.) (see FIG. 9), (c) goat antihuman/mouse choline acetyl transferase (ChAT) IgG (polyclonal, 1:100; Chemicon International, Temecula, Calif.) (see FIG. 6), (d) rabbit anti-mouse glial fibrillary acidic protein IgG (polyclonal, 1:250; GeneTex Inc., San Antonio, Tex.) (see FIG. 7), (e) rabbit antihuman/mouse ionized calcium binding adaptor molecule 1 (IBA-1) IgG (polyclonal, 1:500; Wako Pure Chemical Industries, Ltd, Richmond, Va.), (f) mouse anti-human/mouse clone AT8 PHF-1 Tau (monoclonal, 1:200; Pierce Biotechnology Inc., Rockford, Ill.), (g) rabbit anti-human/mouse TAR DNA-binding protein 43 (TDP43) (1:100; ProteinTech Group Inc., Chicago, Ill.) (See FIG. 14), (h) chicken anti-human/mouse β-tubulin 3 (TuJ1 antigen) (polyclonal, 1:100, Ayes Labs, Inc., Tigard, Oreg.), (i) rabbit anti-mouse tyrosine hydroxylase (polyclonal, 1:500, Chemicon International, Temecula, Calif. or polyclonal 1:1000, Affinity BioReagents, Golden, Colo.) (FIG. 10), (j) rabbit anti human/mouse anti-pJunscr73 IgG (polyclonal, 1:200; Chemicon International, Temecula, Calif.), (k) rabbit anti human/mouse anti-HSP-70 IgG (polyclonal, 1:200; Chemicon International, Temecula, Calif.), or (1) rabbit anti human/mouse anti-HSP-25 IgG (polyclonal, 1:100; Chemicon International, Temecula, Calif.). In each experiment, additional slides were incubated with the primary antibody and the secondary antibody omitted or with secondary antibody and primary antibody omitted to test for nonspecific staining. Where appropriate, positive control slides (Alzheimer's disease patient entorhinal cortex, obtained from Drs. Claudia Schwab and Patrick McGeer of the Kinsmen Laboratory, University of British Columbia, Vancouver, BC, Canada) were also processed as above for comparison. […]

[4] = system: Phosphorylated TDP-43 aggregates; test: TDP-43 immunofluorescence; set-up: key to Phosphorylated TDP-43 aggregates: − = not present; + = present; conditions: for Phosphorylated TDP-43 aggregates: SG-fed
Description: as §1

Structure (SMILES): CC[C@H](/C=C/[C@@H](C)[C@H]1CC[C@H]2[C@@H]3CC=C4C[C@@H](O[C@@H]5O[C@H](CO)[C@@H](O)[C@H](O)[C@H]5O)CC[C@]4(C)[C@H]3CC[C@]12C)C(C)C [SG, Stigmasterol β-D-Glucopyranoside]
- Anti-pJun immunoreactive cells over time ([1]; SG-fed group over time (35 to 52 wk)): Anti-pJun immunoreactive cells (SG-fed group over time) (ns)
- Anti-pJun, change ([1]; SG-fed vs control, Time-point 1 (35 wk)): Anti-pJun: +199%*
- Anti-pJun ([1]; SG-fed vs control, Time-point 2 (52 wk)): Anti-pJun (ns)
- Body weights [2]: normal weight gain; also recorded: not significantly different
- Fewer cholinergic neurons than control ([3]; 35 weeks): 18%
- Fewer cholinergic neurons than control ([3]; 52 weeks): 32%
- Cholinergic neurons, change ([3]; Time-point 1 (35 wk)): Cholinergic neurons (−18%)
- Cholinergic neurons, change ([3]; Time-point 2 (52 wk)): Cholinergic neurons (−32%)
- Phosphorylated TDP-43 aggregates ([4]; Time-point 1 (35 wk)): No abnormal translocation of TDP-43 was observed and −
- Phosphorylated TDP-43 aggregates ([4]; Time-point 2 (52 wk)): +
- TDP-43 pathology, incidence in SG-fed group ([4]; Time-point 2 (52 wk), lumbar spinal cord): Two of eight and 2/8
- Pathologic phosphorylated TDP-43-containing aggregates, quantification ([4]; lumbar spinal cord, SG-fed animals): increased
